Laboratory results: patent US20260115187A1, “TRICYCLIC SKELETON COMPOUND AND USE THEREOF IN PREPARATION OF ANTITUMOR DRUG” (ZHONGSHAN HOSPITAL, FUDAN UNIVERSITY, priority 2024, published 2026)
Read-outs that look alike come from different tables or passages of the source.

How the values were obtained:
[1] = test system: MHCC97H KSR2 OE (97H cells overexpressing KSR2); experiment: Cell IC50 assay (CCK8 cell viability), MHCC97H KSR2 OE; format: cell-based; details: Homo sapiens
Protocol: (§1) (1) Cell Preparation: Hepatoma cells (PLC/PRF/5, sourced from the Chinese Academy of Sciences; MHCC97H, sourced from this research institute) in good growth condition are prepared. The cells are trypsinized, diluted, and seeded into 96-well cell culture plates. 1,000-3,000 cells are added per well. The plates are then placed in a cell culture incubator at 37° C. with 5% CO2. Drugs are added after the cells have adhered for 24 h.
(§2) (2) Drug Addition: The drugs are subjected to gradient dilution, typically setting 9 concentrations. Control groups containing no drug medium and medium containing only the drug solvent are also set up. The diluted drugs are added to the cell culture plates seeded the previous day. The plates are incubated for 72 h.
(§3) (3) CCK8 Assay for Cell Viability: CCK8 is mixed with culture medium at a 1:10 ratio. 100 μL of this mixture is added to each well of the cell culture plate. After incubating for 2-4 h, the OD values are measured using a microplate reader.
(§4) (4) Data Analysis: Based on the corresponding OD values, the data are compiled, IC50 curves are plotted, and the IC50 values are obtained.
(§5) (5) IC50 Verification: The theoretical IC50 value is identified from the IC50 curve. Drug concentrations at ½ times, 1 time, and 2 times this theoretical value are used for verification.

[2] = test system: PLC/PRF/5 KSR2 OE (PLC cells overexpressing KSR2); experiment: Cell IC50 assay (CCK8 cell viability), PLC/PRF/5 KSR2 OE; format: cell-based; details: Homo sapiens, read-out: IC50 value of cell viability, PLC/PRF/5 KSR2 OE (PLC cells overexpressing KSR2)
Protocol: as §1, §2, §3, §4, §5

[3] = hepatoma cells, 72 h incubation, CCK8, read-out: IC50 value of cell viability, MHCC97H KSR2 OE (97H cells overexpressing KSR2)
[4] = PLC-PRF-5, hepatoma cells, 72 h incubation, CCK8
[5] = read-out: IC50 value of cell viability, MHCC97H KSR2 OE (97H cells overexpressing KSR2)

SMILES	IC50 [1, 3]	IC50 [2, 4]	IC50 [1, 5]	IC50 ([2]; PLC-PRF-5, 72 h)
CCN1CCN(C2CCN(CCCNC(=O)c3nn(C)c4c3COc3cc(Cl)ccc3-4)CC2)CC1 [Compound 84]	1 µM	2 µM	–	–
Cn1nc(C(=O)NCCCN2CCN(C3CCCC3)CC2)c2c1-c1ccccc1SC2 [Compound 3]	56 µM	32 µM	–	–
CN1CCN(C2CCN(CCCNC(=O)c3nn(C)c4c3COc3cc(C(F)(F)F)ccc3-4)CC2)CC1 [Compound 91]	4 µM	2 µM	–	–
Cn1nc(C(=O)NCCCN2CCN(c3ccncc3)CC2)c2c1-c1ccccc1SC2 [Compound 21]	6 µM	7 µM	–	–
CN1CCN(C2CCN(CCCNC(=O)c3n[nH]c4c3COc3cc(Cl)ccc3-4)CC2)CC1 [Compound 125]	1 µM	1 µM	–	–
CN1CCN(C2CCN(CCCNC(=O)c3c4c(nn3C)-c3ccc(Cl)cc3OC4)CC2)CC1 [Compound 117]	0.7 µM	6 µM	–	–
CN1CCN(C2CCN(CCCNC(=O)c3nn(C)c4c3COc3c(Cl)cccc3-4)CC2)CC1 [Compound 72]	2 µM	2 µM	–	–
CN1CCN(C2CCN(CCCNC(=O)c3nn(C)c4c3COc3ccc(F)cc3-4)CC2)CC1 [Compound 76]	22 µM	18 µM	–	–
O=C(NCCCN1CCN(C2CCCCC2)CC1)c1nn(CC2CC2)c2c1CSc1ccccc1-2 [Compound 15]	39 µM	10 µM	–	–
CCN1CCN(C2CN(C3CC(CNC(=O)c4nn(C)c5c4COc4cc(OC(F)(F)F)ccc4-5)C3)C2)CC1 (centres unmarked) [Compound 112]	4 µM	3 µM	–	–
CN(C)C1CN(CCCNC(=O)c2nn(C)c3c2CSc2ccccc2-3)C1 [Compound 54]	5 µM	6 µM	–	–
Cn1nc(C(=O)NCCCN2CCN(c3ccccc3Cl)CC2)c2c1-c1ccccc1SC2 [Compound 22]	30 µM	15 µM	–	–
Cc1ccc2c(c1)OCc1c-2nn(C)c1C(=O)NCCCN1CCC(N2CCN(C)CC2)CC1 [Compound 116]	7 µM	18 µM	–	–
Cn1nc(C(=O)NCCCN2CCN(Cc3ccccc3)CC2)c2c1-c1ccccc1SC2 [Compound 10]	–	–	38 µM	16 µM
Cn1nc(C(=O)NCCCN2CCN(C3CC4(CCC4)C3)CC2)c2c1-c1ccccc1SC2 [Compound 4]	15 µM	22 µM	–	–
CN1CCN(C2CCN(CCCNC(=O)c3nn(C4COC4)c4c3CSc3ccccc3-4)CC2)CC1 [Compound 88]	41 µM	22 µM	–	–
CN1CCN(C2CCN(CCCNC(=O)c3nn(C)c4c3COc3cc(Cl)c(Br)cc3-4)CC2)CC1 [Compound 101]	1 µM	1 µM	–	–
Cn1nc(C(=O)NCCCN2CCN(c3ccccn3)CC2)c2c1-c1ccccc1SC2 [Compound 19]	40 µM	40 µM	–	–
Cn1nc(C(=O)NCC(F)(F)CN2CCC(N3CCOCC3)CC2)c2c1-c1ccccc1SC2 [Compound 35]	22 µM	28 µM	–	–
Cc1ccc2c(c1)OCc1c-2nn(C)c1C(=O)NCCCN1CC(N2CCN(C)CC2)C1 [Compound 115]	18 µM	43 µM	–	–
Cn1nc(C(=O)NCC(F)(F)CN2CCC(N3CCC(F)(F)CC3)CC2)c2c1-c1ccccc1SC2 [Compound 37]	28 µM	19 µM	–	–
CCN1CCN(C2CN(C3CC(CNC(=O)c4nn(C)c5c4COc4cc(Cl)ccc4-5)C3)C2)CC1 (centres unmarked) [Compound 114]	2 µM	4 µM	–	–
Cn1nc(C(=O)NCCCN2CCC(N3CCC(O)C3)CC2)c2c1-c1ccccc1SC2 (centres unmarked) [Compound 46]	6 µM	2 µM	–	–
CCN1CCN(C2CN(C3CC(CNC(=O)c4nn(C)c5c4CSc4ccccc4-5)C3)C2)CC1 (centres unmarked) [Compound 80]	8 µM	28 µM	–	–
CN1CCN(C2CCN(CCCNC(=O)c3nn(C)c4c3CS(=O)(=O)c3ccccc3-4)CC2)CC1 [Compound 75]	105 µM	18 µM	–	–

SMILES	IC50 [1, 3]	IC50 [2, 4]	IC50 [1, 5]	IC50 ([2]; PLC-PRF-5, 72 h)
CN1CCN(C2CCN(CCCNC(=O)c3nn(C)c4c3COc3cc(OC(F)(F)F)ccc3-4)CC2)CC1 [Compound 105]	3 µM	4 µM	–	–
Cn1nc(C(=O)NCCCN2CCC(c3ccccc3)CC2)c2c1-c1ccccc1SC2 [Compound 31]	19 µM	21 µM	–	–
Cn1nc(C(=O)NCCCN2CCC(N3CCC3)CC2)c2c1-c1ccccc1SC2 [Compound 47]	4 µM	2 µM	–	–
Cn1nc(C(=O)NCCCN2CCC(N)CC2)c2c1-c1ccccc1SC2 [Compound 55]	5 µM	4 µM	–	–
CN1CCN(C2CCN(CCCNC(=O)c3nn(C)c4c3COc3cc(Cl)c(C#N)cc3-4)CC2)CC1 [Compound 113]	0.8 µM	1 µM	–	–
Cn1nc(C(=O)NCC(F)(F)CN2CCN(c3ccccc3)CC2)c2c1-c1ccccc1SC2 [Compound 23]	8 µM	8 µM	–	–
CCN1CCN(C2CCN(CCCNC(=O)c3n[nH]c4c3COc3cc(C(F)(F)F)c(C#N)cc3-4)CC2)CC1 [Compound 132]	1 µM	4 µM	–	–
CN1CCN(C2CCN(CCCNC(=O)c3c4c(nn3C)-c3ccc(-c5cn[nH]c5)cc3OC4)CC2)CC1 [Compound 123]	85 µM	114 µM	–	–
Cn1nc(C(=O)NCCCN2CCC(N3CCCCC3)C(F)(F)C2)c2c1-c1ccccc1SC2 (centres unmarked) [Compound 36]	71 µM	62 µM	–	–
Cn1nc(C(=O)NCCCN2CC(N3CCOCC3)C2)c2c1-c1ccc(Cl)cc1OC2 [Compound 98]	29 µM	18 µM	–	–
CC(C)N1CCN(C2CN(CCCNC(=O)c3nn(C)c4c3COc3cc(Cl)ccc3-4)C2)CC1 [Compound 103]	5 µM	5 µM	–	–
Cn1nc(C(=O)NCCCN2CCC(N3CCN(C4CC4)CC3)CC2)c2c1-c1ccccc1SC2 [Compound 63]	10 µM	12 µM	–	–
Cn1nc(C(=O)NCCN2CCN(C3CCCCC3)CC2)c2c1-c1ccccc1SC2 [Compound 11]	–	–	62 µM	35 µM
CCn1nc(C(=O)NCCCN2CCN(C3CCCCC3)CC2)c2c1-c1ccccc1SC2 [Compound 14]	14 µM	39 µM	–	–
CCN1CCN(C2CCN(CCCNC(=O)c3n[nH]c4c3COc3cc(Cl)c(C#N)cc3-4)CC2)CC1 [Compound 129]	4 µM	5 µM	–	–
CN1CC2CCC(C1)N2C1CCN(CCCNC(=O)c2nn(C)c3c2CSc2ccccc2-3)CC1 [Compound 74]	8 µM	10 µM	–	–
Cn1nc(C(=O)NCCCN2CC(N3CC[C@H](O)C3)C2)c2c1-c1ccc(Cl)cc1OC2 [Compound 104]	41 µM	30 µM	–	–
CN1CCN(C2CN(CCCNC(=O)c3nn(C)c4c3CSc3cc(Cl)ccc3-4)C2)CC1 [Compound 97]	5 µM	7 µM	–	–
Cn1nc(C(=O)NCC2CC(N3CCC(N4CCCC4)CC3)C2)c2c1-c1ccccc1SC2 (centres unmarked) [Compound 51]	1 µM	1 µM	–	–
CN1CCN(C2CCN(CCCNC(=O)c3nn(C)c4c3COc3cc(C#N)ccc3-4)CC2)CC1 [Compound 94]	10 µM	7 µM	–	–
Cn1nc(C(=O)NCCCN2CCN(c3ccc(Cl)cc3)CC2)c2c1-c1ccccc1SC2 [Compound 25]	37 µM	20 µM	–	–
Cn1nc(C(=O)N2CC(CN3CCC(N4CCCC4)CC3)C2)c2c1-c1ccccc1SC2 [Compound 49]	7 µM	7 µM	–	–
Cn1nc(C(=O)NCCCN2CCC(N3CCOCC3)CC2)c2c1-c1ccccc1SC2 [Compound 42]	39 µM	43 µM	–	–
CN1CCN(C2CCN(CCCNC(=O)c3nn(C)c4c3COc3cc(C5CC5)ccc3-4)CC2)CC1 [Compound 93]	4 µM	3 µM	–	–
